From paper PMC10873978, “Novel tetrahydroisoquinolines as DHFR and CDK2 inhibitors: synthesis, characterization, anticancer activity and antioxidant properties” (BMC Chemistry, 2024)
Like-named read-outs stand apart in the source and are kept apart here.

How the values were obtained:
MCF7 cell line = test: In vitro cytotoxic activity, MTT method, MCF7; type: cell-based, human
Protocol: (§1) Cell lines: The in vitro human breast cancerous cell line (MCF7), lung cancerous cell lines (A549) and normal cell lines were purchased from Serum and Vaccine formulation in Cairo-Egypt.
(§2) In vitro cytotoxic activity of all synthesized compounds against two human breast cell line (MCF7) and lung cell lines (A549) was evaluated according to the MTT method. Firstly, Growth the cell line medium in 96 well tissue culture plate was injected with 10^5 cells/mL (100 uL/plate well) of the cell line and incubated at 37 °C for 24 h to develop a monolayer sheet then the formed growth medium was poured from 96 well microtiter plates after the confluent sheet of cells. […] Secondly, add 0.1 mL of each concentration tetrahydroisoquinoline sample to each plate. The plates were incubated at 37 °C. Thirdly MTT solution (5 mg/mL in PBS) is prepared. Add 20 µL of MTT solution to each well plates. And shaking in 150 rpm for 5 min, to mix the MTT into the media. Then incubate at (37 °C, 5% CO2) for 1–5 h. Finally read the optical density at 560 nm and subtract background at 620 nm.
(§3) In this work, doxorubicin was used as a positive control drug for comparison with the synthesized compounds under the same experimental conditions.

A549 cell line = test: In vitro cytotoxic activity, MTT method, A549
Protocol: as §1, §2, §3

[1] = DPPH scavenging antioxidant activity
Protocol: The antioxidant activity of ten compounds was determined using DPPH [32–34]. A solution 1: prepared by dissolving DPPH (0.002 g) in ethanol (50 mL etnanol). Solution 2: prepared by dissolving different weights 0.05, 0.01 g of each sample in 1 mL of DMSO then take 10 µL of each sample solution with 1 mL ethanol. Then mix 1 mL of solution 1 with 1 mL of solution 2 then vortex the resulting mixture in the dark for about 30 min. The absorbance of the mixture was measured by spectrophotometer at λmax = 517 nm against blank 1 mL absolute ethanol and compared to the ascorbic acid (Vitamin C).
Ten newly synthesized compounds were studied as in vitro antioxidants by measuring of their DPPH scavenging activity which is represented as a percentage % [32]^. Results are represented by mean ± SD of three replicates. […] The higher dose concentration of 0.05 μg/mL represents higher antioxidant activity. […] The high antioxidant activity is referred to the presence of C=O, NH2, and OH groups like ascorbic acid which can be easily oxidized and reduced and can be used as antioxidant drugs. (Fig. 8 and Table 9).

## CC(=O)C1C(c2ccc(N(C)C)cc2)c2c(C)nc3sc(C(=O)Nc4ccc(Cl)cc4)c(N)c3c2CC1(C)O (stereo not shown) [Compound 8c, 7-Acetyl-1-amino-N-(4-chlorophenyl)-5,8-dimethyl-8-hydroxy-6-(4-N,N-dimethyl-aminophenyl)-6,7,8,9-tetrahydrothieno[2,3-c]isoquinoline-2-carboxamide]
MCF7 cell line; Homo sapiens, MCF7, MCF7 cell line, MTT
  IC50: 215 ± 5 nM
MCF7 cell line; MCF7, Conc. 0.0487 µMol
  Toxicity %: 26.68%
  Viability %: 73.3223%
MCF7 cell line; MCF7, Conc. 0.0975 µMol
  Toxicity %: 30.4566%
  Viability %: 69.5434%
MCF7 cell line; MCF7, Conc. 0.195 µMol
  Toxicity %: 40.36%
  Viability %: 59.64%
MCF7 cell line; MCF7, Conc. 0.391 µMol
  Toxicity %: 60.25%
  Viability %: 39.75%
MCF7 cell line; MCF7, Conc. 0.781 µMol
  Toxicity %: 70.02%
  Viability %: 29.98%
MCF7 cell line; MCF7, Conc. 1.562 µMol
  Toxicity %: 85.7%
  Viability %: 14.3%
MCF7 cell line; MCF7, Conc. 3.125 µMol
  Toxicity %: 96.45%
  Viability %: 3.554%
MCF7 cell line; MCF7, Conc. 6.25 µMol
  Toxicity %: 96.57%
  Viability %: 3.431%
MCF7 cell line; MCF7, Conc. 12.5 µMol
  Toxicity %: 97.1%
  Viability %: 2.9%
MCF7 cell line; MCF7, Conc. 25 µMol
  Toxicity %: 96.94%
  Viability %: 3.064%
A549 cell line; A549, Conc. 0.04875 µMol
  Toxicity %: 10.24%
A549 cell line; A549, Conc. 0.0975 µMol
  Toxicity %: 14.26%
A549 cell line; A549, Conc. 0.195 µMol
  Toxicity %: 18.74%
  Viability %: 81.26%
A549 cell line; A549, Conc. 0.391 µMol
  Toxicity %: 47.14%
  Viability %: 52.86%
A549 cell line; A549, Conc. 0.781 µMol
  Toxicity %: 65.05%
  Viability %: 34.95%
A549 cell line; A549, Conc. 1.562 µMol
  Toxicity %: 75.74%
  Viability %: 24.26%
A549 cell line; A549, Conc. 3.125 µMol
  Toxicity %: 84.18%
  Viability %: 15.82%
A549 cell line; A549, Conc. 6.25 µMol
  Toxicity %: 89.35%
  Viability %: 10.65%
A549 cell line; A549, Conc. 12.5 µMol
  Toxicity %: 96.69%
  Viability %: 3.314%
A549 cell line; A549, Conc. 25 µMol
  Toxicity %: 97%
  Viability %: 2.998%
A549 cell line; Homo sapiens, read-out: IC50 ± SD
  IC50: 332 ± 2 nM

## COc1cccc2c1C(=O)c1c(O)c3c(c(O)c1C2=O)C[C@@](O)(C(=O)CO)C[C@@H]3O[C@H]1C[C@H](N)[C@H](O)[C@H](C)O1 [Douxrbicin]
A549 cell line; A549
  IC50: 218 nM
A549 cell line; A549, Conc. 0.0487 µMol
  Toxicity %: 20%
  Viability %: 80%
A549 cell line; A549, Conc. 0.0975 µMol
  Viability %: 73.2%
A549 cell line; A549, Conc. 0.195 µMol
  Toxicity %: 36.33%
  Viability %: 63.67%
A549 cell line; A549, Conc. 0.391 µMol
  Toxicity %: 62.45%
  Viability %: 37.55%
A549 cell line; A549, Conc. 0.781 µMol
  Viability %: 20.26%
A549 cell line; A549, Conc. 1.562 µMol
  Toxicity %: 89.84%
  Viability %: 10.16%
A549 cell line; A549, Conc. 3.125 µMol
  Toxicity %: 93.56%
  Viability %: 6.44%
A549 cell line; A549, Conc. 6.25 µMol
  Toxicity %: 95.35%
  Viability %: 4.651%
A549 cell line; A549, Conc. 12.5 µMol
  Toxicity %: 97.9%
  Viability %: 2.1%
A549 cell line; A549, Conc. 25 µMol
  Toxicity %: 98.9%
  Viability %: 1.1%

## O=C1O[C@H]([C@@H](O)CO)C(O)=C1O [Vitamin C, ascorbic acid, reference compound]
[1]; 0.01 µg/mL
  DPPH scavenging, inhibition (%): 50.54 ± 2.76%
[1]; 0.05 µg/mL
  DPPH scavenging, inhibition (%): 69.90 ± 3.98%
